From patent US20250101017A1, “SALT CRYSTAL FORM AND FREE BASE CRYSTAL FORM OF KINASE INHIBITOR” (CYTOSINLAB THERAPEUTICS CO., LTD., priority 2022, published 2025)
≈ marks a conversion by molar mass, not a printed value. Read-outs that look alike come from different tables or passages of the source.

Legend:
Type in all cases: physicochemical
[1] = Solid stability of crystal forms (80° C., light exposure, 25° C./60% RH, 40° C./75% RH); purity by liquid chromatography and XRPD of the solids
Procedure: A certain amount of API and malate crystal form VII-A were weighed and added into a liquid phase vial, and a total of 9 parallels were prepared. The 9 parallels were placed separately in 80° C. (open); 25° C., 60% RH (open); 40° C., 75% RH (open); and light stability box closed). The stabilities under conditions of: 80° C. for one day, light exposure for 10 days, as well as 25° C., 60% RH and 40° C., 75% RH for one and two weeks were tested, and the XRPD of the solids were measured.
A certain amount of crystal form B was weighed and added into a liquid phase vial, and a total of 9 parallels were prepared. 9 parallels were placed separately in 80° C.; 25° C., 60% RH, 40° C., 75% RH; and light stability boxe.

[2] = Solubility at 37° C. in buffer solutions with different pH (about 10 mg in 1 ml, 2 h and 24 h); filtrate concentration and pH, XRPD of remaining solid; conditions: for solubility at 2 h / solubility at 24 h: read-out: Solubility at 37° C.
Procedure: Approximately 10 mg of malate crystal form VII-A and free base Form A were weighed separately, and 1 ml of buffer solutions with different pH were added to make the solution supersaturated, and the mixtures were stirred at 37° C. for 2 h and 24 hours. The samples were filtered, and the filtrates were measured to determine the concentration and pH value, and the remaining solid was subjected to XRPD determination. The specific results were as follows: […]

[3] = Dynamic moisture adsorption (DVS), hygroscopicity
Procedure: DSV pattern determination method: Dynamic moisture adsorption was performed using Intrinsic DVS. In step mode, the sample is subjected to loop testing at a relative humidity of 0-90%. The sample is analyzed at 10% RH. The dm/dt is set to 0.002 to achieve equilibrium between the sample and the room environment.
Approximately 250 mg of API was weighed and added into a 4 ml glass vial, and 2.5 ml of ethyl acetate was added. The mixture was stirred overnight under magnetic stirring at 50° C., cooled to room temperature, and then filtered, and the obtained solid was dried in vacuum overnight in a 50° C. oven. The resulting solid was free base crystal form Form B. The free base crystal form Form B was subjected to various characterization.

[4] = Competitive pulping of API (free base Form A) and Form B in saturated DCM or water solution at 50° C., XRPD
Procedure: A saturated solution of API (free base Form A) in DCM and water was prepared. Approximately 10 mg of API (free base Form A) and free base crystal form Form B was weighed respectively and added into a 4 ml glass bottle, and 1 mL of the saturated solution was added. […] The resulting solid was subjected to XRPD testing.

CCc1nc2c(N)ncc(-c3ccc(N4CCC(N5CCN(CC)CC5)CC4)c(OC)c3)c2nc1NC1CCOCC1 [Form B, 3-ethyl-8-(4-(4-(4-ethylpiperazin-1-yl)piperidin-1-yl)-3-methoxyphenyl)-N2-(tetrahydro-2H-pyran-4-yl) pyridino [3,4-b]pyrazine-2,5-diamine]
Crystal form ([1]; 25° C., 60% RH, 1 week): Unchanged
Degradation ([1]; 25° C., 60% RH, 1 week): 0.00%
Purity ([1]; 25° C., 60% RH, 1 week): 97.69%
Crystal form ([1]; 25° C., 60% RH, 2 weeks): Unchanged
Degradation ([1]; 25° C., 60% RH, 2 weeks): 0.00%
Purity ([1]; 25° C., 60% RH, 2 weeks): 97.67%
Crystal form ([1]; 40° C., 75% RH, 1 week): Unchanged
Degradation ([1]; 40° C., 75% RH, 1 week): 0.00%
Purity ([1]; 40° C., 75% RH, 1 week): 97.70%
Crystal form ([1]; 40° C., 75% RH, 2 weeks): Unchanged
Degradation ([1]; 40° C., 75% RH, 2 weeks): 0.01%
Purity ([1]; 40° C., 75% RH, 2 weeks): 97.66%
physical and chemical stability ([1]; 80° C. 1 day, light 10 days, 25° C./60% RH and 40° C./75% RH 1 and 2 weeks): good physical and chemical stability
Crystal form ([1]; 80° C., 1 day): Unchanged
Degradation ([1]; 80° C., 1 day): 0.17%
Purity ([1]; 80° C., 1 day): 97.50%
Crystal form ([1]; Light control, 10 days): Unchanged
Degradation ([1]; Light control, 10 days): 0.00%
Purity ([1]; Light control, 10 days): 97.67%
Crystal form ([1]; Light exposure, 10 days): Unchanged
Degradation ([1]; Light exposure, 10 days): 0.04%
Purity ([1]; Light exposure, 10 days): 97.63%
Purity ([1]; initial): 97.67%
solubility compared to API ([2]; 37° C., pH 6.8, pH 7.4, FaSSIF and water): improved compared to API
solubility at 2 h ([2]; FaSSIF, 37 °C, fassif, thermodynamic from solid, medium FaSSIF, 2 h): 1190 µg/mL (≈ 2070 µM)
solubility at 24 h ([2]; FaSSIF, 37 °C, fassif, thermodynamic from solid, medium FaSSIF, 24 h): 1400 µg/mL (≈ 2440 µM)
solubility at 2 h ([2]; FeSSIF, 37 °C, fessif, thermodynamic from solid, medium FeSSIF, 2 h): > 10000 µg/mL
solubility at 24 h ([2]; FeSSIF, 37 °C, fessif, thermodynamic from solid, medium FeSSIF, 24 h): > 10000 µg/mL
solubility at 2 h ([2]; SGF, 37 °C, simulated gastric fluid, thermodynamic from solid, medium SGF, 2 h): > 10000 µg/mL
solubility at 24 h ([2]; SGF, 37 °C, simulated gastric fluid, thermodynamic from solid, medium SGF, 24 h): > 10000 µg/mL
solubility at 2 h ([2]; buffer solution pH 6.8, 37 °C, pH 6.8, aqueous buffer, thermodynamic from solid, medium pH 6.8, 2 h): 310 µg/mL (≈ 539 µM)
solubility at 24 h ([2]; buffer solution pH 6.8, 37 °C, pH 6.8, aqueous buffer, thermodynamic from solid, medium pH 6.8, 24 h): 250 µg/mL (≈ 436 µM)
solubility ([2]; buffer solutions: pH 1.2, pH 3.0, pH 4.5, FeSSIF, SGF, 37 °C, aqueous buffer, thermodynamic from solid, 37° C., pH 1.2, pH 3.0, pH 4.5, FeSSIF, and SGF buffer): > 10000 µg/mL
Crystal form ([2]; medium FaSSIF, XRPD of remaining solid): Form B
pH (24 h) ([2]; medium FaSSIF, filtrate, 37° C.): 6.755
pH (24 h) ([2]; medium FeSSIF, filtrate, 37° C.): 5.724
Solubility at 37° C. ([2]; medium H2O, 24 h): 17.9 µg/mL (≈ 31.1 µM)
Crystal form ([2]; medium H2O, XRPD of remaining solid): Form B
pH (24 h) ([2]; medium H2O, filtrate, 37° C.): 7.197
pH (24 h) ([2]; medium SGF, filtrate, 37° C.): 1.910
Solubility at 37° C. ([2]; medium pH 1.2, 2 h): >10000 µg/mL
Solubility at 37° C. ([2]; medium pH 1.2, 24 h): >10000 µg/mL
pH (24 h) ([2]; medium pH 1.2, filtrate, 37° C.): 1.925
Solubility at 37° C. ([2]; medium pH 3.0, 2 h): >10000 µg/mL
Solubility at 37° C. ([2]; medium pH 3.0, 24 h): >10000 µg/mL
pH (24 h) ([2]; medium pH 3.0, filtrate, 37° C.): 4.892
Solubility at 37° C. ([2]; medium pH 4.5, 2 h): >10000 µg/mL
Solubility at 37° C. ([2]; medium pH 4.5, 24 h): >10000 µg/mL
pH (24 h) ([2]; medium pH 4.5, filtrate, 37° C.): 6.062
Crystal form ([2]; medium pH 6.8, XRPD of remaining solid): Form B
pH (24 h) ([2]; medium pH 6.8, filtrate, 37° C.): 6.813
Solubility at 37° C. ([2]; medium pH 7.4, 2 h): 47.2 µg/mL (≈ 82.1 µM)
Solubility at 37° C. ([2]; medium pH 7.4, 24 h): 39.9 µg/mL (≈ 69.4 µM)
Crystal form ([2]; medium pH 7.4, XRPD of remaining solid): Form B
pH (24 h) ([2]; medium pH 7.4, filtrate, 37° C.): 7.311
crystal form in the buffers ([2]; remaining solids, XRPD): remained unchanged
solubility at 2 h ([2]; water, 37 °C, water, thermodynamic from solid, medium H2O, 2 h): 39.5 µg/mL (≈ 68.7 µM)
crystal form before and after DVS testing [3]: did not change
solid crystal form obtained by competitive pulping ([4]; API and Form B together in DCM, 50° C., 3 days, XRPD): tended to approach Form L
appearance after competitive pulping ([4]; API and Form B together in DCM, after 5 days of beating): became oily
crystal form obtained by competitive pulping ([4]; API and Form B together in water, 50° C., 3 days, XRPD): a mixture of Form B and API
XRPD results ([4]; competitive pulping of API and Form B, DCM, 50° C., 3 days): Form K
